Laboratory results as given in patent publication US10722498B2, “Acetazolamide ophthalmic solution” (INNOVATIVE NANO & MICRO TECHNOLOGIES PVT LTD (INM …, priority 2017, dated 2020).

Legend:
[1] = system: New Zealand white rabbit eyes; assay: Measurement of intraocular pressure in rabbit eyes (tonometry); assay type: in vivo; details: rabbits, oral acetazolamide 12.92 mg/kg
Method: The inhibition of the ocular hypertension was determined by the following protocol: The experiments were performed in new New Zealand white rabbit eyes by using tonometry method. Rabbits were divided into groups; where each group consists of 4 animals. Group 1, Group 2, Group 3, Group 4 and Group 5 of Rabbits are administered with the predetermined concentrations of ophthalmic compositions of Example 1, 2, 3, 4 and 5 respectively. Group 6 of Rabbits are administered with oral acetazolamide 12.92 mg/kg. The intraocular pressure was measured at 0, 0.5, 1, 4, 8, 12 hrs. After 6 hours, one more administration of ophthalmic composition of Example 1 was instilled in Group 1 of Rabbits and the intraocular pressure was measured.
The percentage change in the intraocular pressure is depicted in the following table 1.

[2] = cited from earlier work

Structure (SMILES): CC(=O)Nc1nnc(S(N)(=O)=O)s1 [Oral acetazolamide, acetazolamide]
- percentage change in the intraocular pressure ([1]; 0.5 hrs after administration, 4 per group, eye drops instilled): 18.00%
- percentage change in the intraocular pressure ([1]; 1 hr after administration, eye drops instilled): 14.00%
- percentage change in the intraocular pressure ([1]; 4 hrs after administration, eye drops instilled): 14.00%
- percentage change in the intraocular pressure ([1]; 6 hrs after administration, eye drops instilled): 14.00%
- percentage change in the intraocular pressure ([1]; 8 hrs after administration, Group 1 (Example 1) had a second instillation after 6 hours): 6.00%
- percentage change in the intraocular pressure ([1]; 12 hrs after administration, Group 1 (Example 1) had a second instillation after 6 hours): 6.00%
- solubility in water [2]: very low solubility in water
